Reference: patent US20250066306A1, “COMPOUNDS FOR TREATING MICROBIAL INFECTIONS, METHODS OF MAKING AND USES THEREOF” (McMaster University, priority 2023, published 2025)
Entries after “also recorded” stand apart in the source; their conditions may differ. Read-outs that look alike come from different tables or passages of the source.

Experiments:
HSV-1 [1] = assay: HSV-1 DualF infection of iPSC-derived NPC monolayers, flow cytometry of EGFP/RFP; type: cell-based; settings: for reduction of the percentage of EGFP+-RFP+ cells / anti-HSV-1 activity: 10 μM; for reduction of the percentage of EGFP+-RFP+ cells: MOI 0.1, added 2 h after infection, day 3 p.i., flow cytometry; for antiviral efficacy of ACV compared with Ia: ACV 50 μM vs Ia 10 μM; for anti-HSV-1 activity: 01SD and 9001 NPCs
01SD NPC cultures = assay: Cytotoxicity in uninfected 01SD NPC cultures, flow cytometry with fixable viability dye; type: cell-based, human; settings: uninfected 01SD NPCs
HSV-1 [2] = type: cell-based; settings: 9001 and 01SD brain organoids, fourteen-week old; compounds 10 μM, ACV 50 μM; day 3 p.i.
SARS-CoV2 = assay: NIH-NIAID in vitro SARS-CoV2 viral replication assay in Calu3 cells; type: cell-based
02SF NPCs = assay: RNA sequencing of uninfected NPCs treated with compounds; type: cell-based, human; settings: 10 μM, 72 hours; of 12,433 expressed genes; FDR corrected p<=0.05
[3] = tested on: eukaryotic initiation factor 2 (EIF2) signaling pathway; assay: Ingenuity Pathway Analysis of differentially expressed genes; type: cell-based, human; settings: IPA of DEG, treated vs vehicle; 10 μM
Method: Differentially Expressed Genes (DEG) measured by comparing 2b- and Ia (compound 8)-treated NPCs vs. vehicle-treated NPCs were subjected to Ingenuity Pathway Analysis (IPA). The top 10 pathways showing the greatest statistical significance (Fisher's Exact Test p-value) are shown. Activation (+ve z-score, orange bars) or inhibition (−ve z-score, blue bars) of each pathway is a measure of experimentally determined gene expression changes reported in the literature. Data were analyzed through the use of QIAGEN Ingenuity® Pathway Analysis. The intensity of color indicates the degree of activation/inhibition. Pathways without an activity pattern are in grey. Ratios (orange square above each pathway) represent the degree of overlap between DEG and all members of a given pathway. Y-axis on the right indicates ratio values.
Statistical significance was calculated using right-tailed Fisher Exact Probability Tests; biological pathways showing p-value<0.05 were considered statistically significant. […] IPA analyses also indicated net upregulation in the autophagy and sirtuin signaling pathways.

[4] = tested on: eIF2α phosphorylated on Serine 51; assay: Immunocytochemistry of eIF2α phosphorylated on serine 51 in NPC cultures; type: cell-based, human; settings: 9001 NPCs; 10 μM; 24 hours; vs untreated or 7-treated
Method: (A) NPCs derived from 9001 iPSC lines were exposed to compounds 7, Ia (compound 8), and 2b (10 μM). After 24 hours, cells were fixed and stained with an antibody that detects eIF2α phosphorylated on Serine 51 (EIF2S1). Nuclei were counterstained with Hoechst 33342, and phosphorylation was assessed by fluorescence microscopy. (B) The corrected total cell fluorescence (CTCF) was obtained by measuring EIF2S1 fluorescence in cells where a fluorescent signal could be detected and normalizing for cellular area using equation CTCF=integrated density−(cellular area×mean fluorescence of background readings) (C-D). Up-regulation of the EIF2A kinase EIF2AK3 (C) and the activated transcription factor 4 (ATF4) (D) in 2b- and Ia (compound 8)-treated NPCs. (E) Proposed mechanism of action of 2b and Ia (compound 8).

[5] = tested on: Calu3 (ATCC, HTB-55) cells; settings: assessed at NIH
HSV-1 [6] = settings: earlier work, refs 3d, 5a; cited from earlier work
HSV-1 [7] = settings: ex vivo mouse model; earlier work; cited from earlier work
[8] = tested on: fibroblasts and hepatocytes; settings: earlier work; cited from earlier work
[9] = tested on: iPSC-derived neural progenitor cells (NPCs); settings: earlier work; cited from earlier work
[10] = earlier work, refs 5a, 5b; cited from earlier work
[11] = tested on: 9001 and 01SD brain organoids; assay: Organoid viability, calcein AM assay; type: cell-based, human; settings: without HSV-1 infection; concentrations up to 50 μM
Method: (A) Sixteen-week old 9001 and 01SD brain organoids were infected individually with HSV-1 DualF construct (6000 pfu/organoid). After 2 hours the inocula were removed and Ia was added to varying concentrations (100 nM-[…]). The IC50 was estimated by determining the corrected total cell fluorescence (CTCF) obtained by measuring EGFP fluorescence in organoids using ImageJ and normalizing for background using equation CTCF=integrated density−(area of the organoid x mean fluorescence of background readings). (b) Cytotoxicity of compound Ia without HSV-1 infection was assessed using calcein-AM. The fluorescence of calcein-AM in each organoid was measured and CTCF was determined as described above. The data represent an average of six independent experiments. Error bars represent standard deviations. No significant difference were found between conditions. […]
Organoids viability was analyzing using calcein AM assay (BioLegend; catalogue #425201), according to manufacturer's instructions. […] After incubation, fluorescence signals were recorded using a LEICA DMIL LED Fluorescent microscope through a 0.16NA 4x air objective.
The corrected total cell fluorescence (CTCF) was obtained by measuring EGFP fluorescence in 799-treated and untreated organoids, and normalizing for whole organoid area using equation CTCF=integrated density−(whole organoid area x mean fluorescence of background readings).

HSV-1 strain 17syn+ = assay: In vivo mouse eye HSV-1 infection (corneal scarification), plaque assay of eye swabs; set-up: species or system ND4 Swiss mice
Excerpt: ND4 swiss mice were infected by corneal scarification with 1×10^5 pfu of HSV-1 strain 17syn+. Eyes were swabbed daily for 4 days and assayed for infectious virus by standard plaque assay.
The antiviral efficacy of compound Ia was further investigated in an in vivo mouse model. In order to assess the efficacy of Ia against an acute infection go HSV-1 in vivo, ND4 Swiss mice were infected in the eyes with HSV-1 following light corneal scarification. At the same time that the virus was applied, one group of mice (n=10) were treated with 2 uL of a 50 μM solution of R799 in DMSO and the other group (n=10) were treated with 2 uL DMSO (vehicle), applied to the eyes. The eyes were treated with either vehicle or Ia each day for 4 days. In order to assess the effect of Ia on the course of the infection, the eyes were swabbed daily with a Dacron swab, and the virus eluted in MEM medium. The swab eluate was assessed for the presence of infectious virus by standard plaque assay on rabbit skin cell monolayers.

O=C1N[C@H]2[C@H](O)[C@H](O)[C@@H](O)C[C@@H]2c2cc3c(cc21)OCO3 (relative stereo) [Compound 2b, trans-dihydrolycoricidine, reference compound]
reduction of the percentage of EGFP+-RFP+ cells (HSV-1 [1]; 01SD NPCs): 8016 fold
reduction of the percentage of EGFP+-RFP+ cells (HSV-1 [1]; 9001 NPCs): 424 fold
concentration from which a reduction in cell viability was observed (01SD NPC cultures): ≥ 25 µM
anti-HSV-1 activity (expression of EGFP and RFP reporter genes) (HSV-1 [2]): no expression of EGFP and RFP reporter genes
IC50 (SARS-CoV2; SARS-CoV2 in Calu3 cells, assessed at NIH, read-out: IC50): 180 nM
fraction of expressed genes significantly altered (02SF NPCs): 62.5%
number of genes whose expression was significantly altered (02SF NPCs): 7,766
EIF2 signaling pathway z score [3]: −2.857
eIF2α~P immunoreactivity [4]: increased eIF2α˜P immunoreactivity
CC [5]: 3.48 µM
inhibition of HSV-1 replication compared with acyclovir (HSV-1 [6]): more efficaciously than acyclovir
HSV-1 reactivation from latency (HSV-1 [7]): prevents HSV-1 reactivation from latency
toxicity in comparison to acyclovir [8]: Slightly higher toxicity
toxicity in comparison to acyclovir [9]: lower toxicity

Nc1nc2c(ncn2COCCO)c(=O)[nH]1 [ACV, acyclovir, reference compound]
antiviral efficacy of ACV compared with Ia (HSV-1 [1]; 01SD NPCs, p=0.0208): inferior to Ia
antiviral efficacy of ACV compared with Ia (HSV-1 [1]; 9001 NPCs, p=0.3597): comparable

O=C1NC2C(CC(O)C(O)C2O)c2cc3c(cc21)OCO3 (stereo not drawn) [C3-epimer of 2b]
antiviral activity [10]: totally devoid of antiviral activity

COc1ccc2c(c1)[C@H]1C[C@H](O)[C@@H](O)[C@@H](O)[C@@H]1NC2=O [Compound 5, (2S,3R,4S,4aR,10bR)-2,3,4-Trihydroxy-9-methoxy-1,3,4,4a,5,10b-hexahydrophenanthridin-6(2H)-one]
anti-HSV-1 activity (HSV-1 [1]): no anti-HSV-1 activity
solubility in DMSO (Solubility in DMSO): incompletely soluble in DMSO

O=C1N[C@H]2[C@H](O)[C@H](O)[C@@H](O)C[C@@H]2c2cc(O)ccc21 [Compound 6, (2S,3R,4S,4aR,10bR)-2,3,4,9-Tetrahydroxy-1,3,4,4a,5,10b-hexahydrophenanthridin-6(2H)-one]
anti-HSV-1 activity (HSV-1 [1]): no anti-HSV-1 activity
anti-HSV-1 activity (expression of EGFP and RFP reporter genes) (HSV-1 [2]): no anti-HSV-1 activity
fraction of expressed genes significantly altered (02SF NPCs): 2.1%
number of genes whose expression was significantly altered (02SF NPCs): 256

COc1cccc2c1C(=O)N[C@H]1[C@H](O)[C@H](O)[C@@H](O)C[C@H]21 [Compound 7, (2S,3R,4S,4aR,10bR)-2,3,4-Trihydroxy-7-methoxy-1,3,4,4a,5,10b-hexahydrophenanthridin-6(2H)-one]
anti-HSV-1 activity (HSV-1 [1]): no anti-HSV-1 activity
anti-HSV-1 activity (expression of EGFP and RFP reporter genes) (HSV-1 [2]): no anti-HSV-1 activity
fraction of expressed genes significantly altered (02SF NPCs): 0.3%
number of genes whose expression was significantly altered (02SF NPCs): 33

O=C1N[C@H]2[C@H](O)[C@H](O)[C@@H](O)C[C@@H]2c2cccc(O)c21 [Compound Ia, (2S,3R,4S,4aR,10bR)-2,3,4,7-Tetrahydroxy-1,3,4,4a,5,10b-hexahydrophenanthridin-6(2H)-one]
reduction of the percentage of EGFP+-RFP+ cells (HSV-1 [1]; 01SD NPCs): 6.76 fold
reduction of the percentage of EGFP+-RFP+ cells (HSV-1 [1]; 9001 NPCs): 4.65 fold
cell viability of treated cultures (01SD NPC cultures; concentrations up to 50 μM, ACV and Ia compared): comparable
anti-HSV-1 activity (expression of EGFP and RFP reporter genes) (HSV-1 [2]): no expression of EGFP and RFP reporter genes; also recorded: comparable to 2b and ACV
organoid viability (calcein AM) [11]: No significant reduction in organoid viability
therapeutic selectivity (SARS-CoV2; CC / IC50, SARS-CoV2 in Calu3 cells): 20
IC50 (SARS-CoV2; Severe acute respiratory syndrome coronavirus 2, Calu-3): 90 nM
fraction of expressed genes significantly altered (02SF NPCs): 59.8%
number of genes whose expression was significantly altered (02SF NPCs): 7,433
EIF2 signaling pathway z score [3]: −1.763
eIF2α~P immunoreactivity [4]: increased eIF2α˜P immunoreactivity
yield of infectious virus in the tears (HSV-1 shedding) compared to vehicle (HSV-1 strain 17syn+; 2 uL of 50 μM solution in DMSO to the eyes daily for 4 days, n=10): dramatically reduced the yield of infectious virus; also recorded: dramatically reduces HSV-1 shedding
reduction of peak titer of infectious virus versus vehicle (HSV-1 strain 17syn+; 2 uL of 50 μM solution topically daily): ~3 fold
delay of peak titer of infectious virus versus vehicle (HSV-1 strain 17syn+; 2 uL of 50 μM solution topically daily, vehicle peak at day 2 post-infection): one
CC [5]: 1.92 µM
